Experimental data published in US20120329832A1, “Novel Insect-Repellent Coumarin Derivatives, Syntheses, and Methods of Use” (priority 2011, published 2012).

System: drosophila
Assay: Tests in vivo on drosophila: two-tube repellency test, Repulsive Index
Set-up: key to RI against drosophila (FIG. 1) / RI (FIG. 2 and 3): RI = (N1−N2)/(N1+N2); N1 solvent tube, N2 compound tube
Conditions: for In vivo tests: Tube EtOH: share of drosophila in EtOH tube
Procedure: Description of Test system. To evaluate repellent efficacy, compounds were added to test chambers, each containing 40 drosophila. The test was performed in 3 phases: 1) fast (flies aspirated to test tubes); 2) implementation of the system (addition of filter paper, addition of solvent containing test compound); and 3) counting of the flies (after 22 hours exposure to test compound). The number of drosophila in each tube were counted: number of flies in the “filter paper+Solvent” tube was designated N1 and the number of flies in the “filter paper impregnated with test compound” was designated N2.
The Repulsive Index (R1) is given by the following equation: (N1−N2)/(N1+N2).

[1] = 10% solution of product, share of drosophila in product tube versus EtOH tube
[2] = 20% solution of product, share of drosophila in product tube versus EtOH tube

## CCC(C)COc1ccc2ccc(=O)oc2c1 (centres unmarked) [EV04094]
10% solution of product
  In vivo tests: Tube EtOH: 89.63%
[1]
  In vivo tests: Tube product: 10.37%
20% solution of product
  In vivo tests: Tube EtOH: 86.47%
[2]
  In vivo tests: Tube product: 13.53%

## CCC(C)NC(=O)c1ccc2ccc(=O)oc2c1 (centres unmarked) [EV06166]
Concentration not given
  RI against drosophila (FIG. 1): ~0.2

## CCC(C)Oc1ccc2oc(=O)ccc2c1 (centres unmarked) [EV06068]
10% solution of product
  In vivo tests: Tube EtOH: 90.91%
[1]
  In vivo tests: Tube product: 9.09%
20% solution of product
  In vivo tests: Tube EtOH: 93.85%
[2]
  In vivo tests: Tube product: 6.15%

## CC[C@H](C)OC(=O)c1ccc2ccc(=O)oc2c1 [EV05178]
10% solution in EtOH
  RI (FIG. 2 and 3): ~0.07
10% solution of product
  In vivo tests: Tube EtOH: 54.77%
[1]
  In vivo tests: Tube product: 45.23%
20% solution in EtOH
  RI (FIG. 2 and 3): ~0.7
20% solution of product
  In vivo tests: Tube EtOH: 85.50%
[2]
  In vivo tests: Tube product: 14.50%

## CCC(C)Oc1cc(=O)oc2ccccc12 (centres unmarked) [EV06088]
10% solution of product
  In vivo tests: Tube EtOH: 90.50%
[1]
  In vivo tests: Tube product: 9.50%
20% solution of product
  In vivo tests: Tube EtOH: 91.04%
[2]
  In vivo tests: Tube product: 8.96%

## CC(C)C(C)Oc1ccc2ccc(=O)oc2c1 (centres unmarked) [EV06028]
10% solution of product
  In vivo tests: Tube EtOH: 86.74%
[1]
  In vivo tests: Tube product: 13.26%
20% solution of product
  In vivo tests: Tube EtOH: 94.21%
[2]
  In vivo tests: Tube product: 5.79%

## CCC(CC)Oc1ccc2ccc(=O)oc2c1 [EV04114]
10% solution of product
  In vivo tests: Tube EtOH: 88.00%
[1]
  In vivo tests: Tube product: 12.00%
20% solution of product
  In vivo tests: Tube EtOH: 93.09%
[2]
  In vivo tests: Tube product: 6.91%
In vivo
  repellent or attractant activity against drosophila, in words: significant repellent activity

## CCC(CC)Oc1ccc2oc(=O)ccc2c1 [EV06018]
Share of drosophila in solvent tube (AcOEt), product concentration not given
  In vivo tests: Tube AcOEt: 81.07%

## CC(C)CCOc1ccc2ccc(=O)oc2c1 [EV06036]
10% solution of product
  In vivo tests: Tube EtOH: 86.10%
[1]
  In vivo tests: Tube product: 13.90%
20% solution of product
  In vivo tests: Tube EtOH: 86.63%
[2]
  In vivo tests: Tube product: 13.73%

## C=C(C)C1CC=C(COc2ccc3ccc(=O)oc3c2)CC1 (centres unmarked) [EV04090]
Share of drosophila in solvent tube (CH2Cl2), product concentration not given
  In vivo tests: Tube CH2Cl2: 70.20%
Solvent CH2Cl2 according to Table 2, Tested Concentration 0.666 mmol/mL
  Repulsive Index (RI): 0.404

## CCC(C)Oc1ccc2ccc(=O)oc2c1 (centres unmarked) [EV04058]
10% solution of product
  In vivo tests: Tube EtOH: 91.22%
[1]
  In vivo tests: Tube product: 8.78%
20% solution of product
  In vivo tests: Tube EtOH: 88.02%
[2]
  In vivo tests: Tube product: 11.98%

## CCCCCOc1cc(=O)oc2ccccc12 [EV06136]
20% solution of product, share of drosophila in AcOEt tube
  In vivo tests: Tube AcOEt: 88.56%
20% solution of product, share of drosophila in product tube versus AcOEt tube
  In vivo tests: Tube product: 11.44%

## CCCCCCCCOc1ccc2ccc(=O)oc2c1 [EV06144]
5% solution of product
  In vivo tests: Tube EtOH: 91.35%
5% solution of product, share of drosophila in product tube versus EtOH tube
  In vivo tests: Tube product: 8.65%
10% solution of product
  In vivo tests: Tube EtOH: 90.00%
[1]
  In vivo tests: Tube product: 10.00%
20% solution of product
  In vivo tests: Tube EtOH: 91.73%
[2]
  In vivo tests: Tube product: 8.37%

## CCCCCOc1ccc2ccc(=O)oc2c1 [EV06026]
10% solution of product
  In vivo tests: Tube EtOH: 87.53%
[1]
  In vivo tests: Tube product: 12.47%
20% solution of product
  In vivo tests: Tube EtOH: 94.12%
[2]
  In vivo tests: Tube product: 5.88%

## CCCC(C)Oc1cc(=O)oc2ccccc12 (centres unmarked) [EV06098]
10% solution of product
  In vivo tests: Tube EtOH: 79.29%
[1]
  In vivo tests: Tube product: 20.71%
20% solution of product
  In vivo tests: Tube EtOH: 97.57%
[2]
  In vivo tests: Tube product: 2.43%

## CCCCN(CCCC)C(=O)c1ccc2ccc(=O)oc2c1 [EV05138]
10% solution of product
  In vivo tests: Tube EtOH: 82.54%
[1]
  In vivo tests: Tube product: 17.46%
20% solution of product
  In vivo tests: Tube EtOH: 86.27%
[2]
  In vivo tests: Tube product: 13.73%
